The results in this text go back to ChEMBL document CHEMBL1201862, “PubChem BioAssay data set” (2004).

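Assay format: 96-well plates, 48-hour exposure. Abbreviation: GI50, concentration required for 50% inhibition of growth.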 Calls of active or inactive are those of the source. Cut-off read from the data, not from the text of the source: active = GI50 up to about 1.1 µM and inactive = higher. A value given as a limit tells only on which side of the number the result lay.

Some test systems named below: SNB-75; M14; HT-29; OVCAR-5; SF-295; SF-539; SK-OV-3; NCI-H226; OVCAR-4; HL-60; OVCAR-3; TK-10; Malme-3M; K562; UO-31; HCC 2998; OVCAR-8; SK-MEL-28; SK-MEL-5; HOP-92.
What all share (test): inhibition of tumour cell growth, NCI panel, 48 h

As for `O=C(NCCCl)SCCO`, the GI50 in the assay on SNB-75, in the assay with M14, with HT-29, in the assay with OVCAR-5, in the assay on SF-295 and with SF-539 was > 100 µM (inactive) throughout. For the same compound, the GI50 with SK-OV-3, in the assay on NCI-H226, with OVCAR-4, in the assay with HL-60, in the assay with OVCAR-3 and in the assay on TK-10 was > 100 µM (inactive) each time. Further, the GI50 with Malme-3M, in the assay with K562, in the assay with UO-31, in the assay on HCC 2998, in the assay with OVCAR-8 and in the assay with SK-MEL-28 was > 100 µM (inactive) in each case.

With `CON(C)C(C#N)=C(C#N)C#N`, the GI50 in the assay on SNB-75, in the assay with M14, in the assay with HT-29, with OVCAR-5, in the assay with SF-295 and with SF-539 was > 10 µM (inactive) in each case. The GI50 in the assay on SK-MEL-5 was > 10 µM (inactive); in the assay on SK-OV-3, > 10 µM (inactive); with NCI-H226, 2.86 µM (inactive); with OVCAR-4, > 10 µM (inactive); in the assay with HL-60 it was > 10 µM (inactive); in the assay with OVCAR-3, > 10 µM (inactive). Further, the GI50 in the assay with TK-10, in the assay on Malme-3M, with K562, in the assay on UO-31, in the assay on HCC 2998 and in the assay with OVCAR-8 was > 10 µM (inactive) throughout. Besides, the GI50 in the assay with SK-MEL-28 is > 10 µM (inactive).

As to `CN1C(=O)CCC1c1ccc2c(c1)oc(=O)n2C` (stereo not given), the GI50 in the assay with SNB-75, in the assay with M14, with HT-29, in the assay with OVCAR-5, with SF-295 and with SF-539 was > 100 µM (inactive) in each case. In addition, the GI50 in the assay with SK-OV-3, in the assay on NCI-H226, with OVCAR-4, with HL-60, with TK-10 and with Malme-3M was > 100 µM (inactive) in each case. Also, the GI50 in the assay on K562, in the assay on UO-31, in the assay on HCC 2998, in the assay with OVCAR-8 and with SK-MEL-28 was > 100 µM (inactive) in each case.

Take `O=C(/C=C/c1ccc(OCc2ccccc2)cc1)NCc1ccc(C(=O)NCc2ccccc2)cc1`: the GI50 in the assay on SNB-75 was 36.6 µM (inactive); in the assay with M14 it was > 100 µM (inactive); in the assay on HT-29, > 100 µM (inactive); with OVCAR-5, > 100 µM (inactive); in the assay with SF-295, > 100 µM (inactive); in the assay with SF-539, > 100 µM (inactive). Besides, the GI50 with SK-MEL-5, in the assay with SK-OV-3, in the assay on NCI-H226, with OVCAR-4, in the assay on OVCAR-3 and in the assay with TK-10 was > 100 µM (inactive) throughout. Further, the GI50 in the assay on Malme-3M, in the assay on K562, in the assay on UO-31, in the assay with HCC 2998, in the assay on HOP-92 and with OVCAR-8 was > 100 µM (inactive) in each case. In the assay with SK-MEL-28, the GI50 is > 100 µM (inactive).

Regarding `CN(CCO)Cc1ncccc1O`, the GI50 in the assay on SNB-75, with M14, in the assay on HT-29, with OVCAR-5, with SF-295 and with SF-539 was > 100 µM (inactive) in each case. The GI50 in the assay on SK-MEL-5 was > 100 µM (inactive); with SK-OV-3 it was > 100 µM (inactive); with NCI-H226, > 100 µM (inactive); with OVCAR-4 it was > 100 µM (inactive); in the assay on HL-60, 64.3 µM (inactive); with OVCAR-3 it was > 100 µM (inactive). Moreover, the GI50 with TK-10 was > 100 µM (inactive); with Malme-3M it was > 100 µM (inactive); in the assay with K562, 0.495 µM (active); in the assay on UO-31, > 100 µM (inactive); in the assay with HOP-92, > 100 µM (inactive); in the assay on OVCAR-8, > 100 µM (inactive). The GI50 with SK-MEL-28 was > 100 µM (inactive).

Consider `O=C1c2ccccc2N(O)C1(c1ccccc1)C1CCCC=C1N1CCOCC1` (stereo not given), for which the GI50 is 18.4 µM (inactive) in the assay on SNB-75; > 100 µM (inactive) in the assay on M14; > 100 µM (inactive) with HT-29; > 100 µM (inactive) with OVCAR-5; > 100 µM (inactive) with SF-295; 80.9 µM (inactive) in the assay on SF-539. Moreover, the GI50 in the assay on SK-MEL-5 is > 69.5 µM (inactive); in the assay with SK-OV-3 it was > 100 µM (inactive); in the assay on NCI-H226 it was 69.5 µM (inactive); in the assay on HL-60 it was 50.4 µM (inactive); with OVCAR-3, > 100 µM (inactive); with TK-10, > 100 µM (inactive). The GI50 is 39.8 µM (inactive) with K562; 22.5 µM (inactive) with UO-31; > 100 µM (inactive) with HCC 2998; > 100 µM (inactive) with OVCAR-8; 83.8 µM (inactive) in the assay with SK-MEL-28.

Consider `O=c1nc(NC(c2ccccc2)(c2ccccc2)c2ccccc2)ccn1CCCl`, for which the GI50 in the assay on SNB-75 is 17.6 µM (inactive); in the assay on HT-29 it was 17 µM (inactive); in the assay with OVCAR-5 it was 27.5 µM (inactive); in the assay on SF-295 it was 20.6 µM (inactive); in the assay with SF-539, 17.8 µM (inactive); in the assay with NCI-H226, 21.2 µM (inactive). Further, the GI50 in the assay on OVCAR-4 was 20.6 µM (inactive); in the assay with HL-60, 22.8 µM (inactive); with OVCAR-3, 13.2 µM (inactive); in the assay with TK-10, 27.7 µM (inactive); with Malme-3M it was 14.6 µM (inactive); with K562 it was 21.8 µM (inactive). In addition, the GI50 in the assay with UO-31 was 47.6 µM (inactive); in the assay on HCC 2998 it was 14.9 µM (inactive); in the assay with HOP-92, 14.2 µM (inactive); with OVCAR-8, 16.2 µM (inactive); with SK-MEL-28, 15 µM (inactive).

As for `O=[N+]([O-])c1ccc(N2N=C(c3ccc(NCc4nc5ccccc5[nH]4)cc3)CC2c2ccco2)cc1` (stereo not given), the GI50 is 27.9 µM (inactive) with SNB-75; 23.5 µM (inactive) with M14; 27.5 µM (inactive) in the assay on HT-29; 49 µM (inactive) in the assay on OVCAR-5; 23.6 µM (inactive) with SF-295; 26.1 µM (inactive) in the assay with SF-539. In addition, the GI50 is 14.2 µM (inactive) in the assay on SK-MEL-5; 82.2 µM (inactive) with SK-OV-3; 20.2 µM (inactive) in the assay on OVCAR-4; 17.6 µM (inactive) in the assay with HL-60; 21.8 µM (inactive) in the assay with OVCAR-3; 47.2 µM (inactive) in the assay on TK-10. Also, the GI50 was 28.5 µM (inactive) in the assay with Malme-3M; 20.4 µM (inactive) in the assay on K562; 6.53 µM (inactive) in the assay with UO-31; 30.9 µM (inactive) in the assay with HCC 2998; 32.2 µM (inactive) in the assay with HOP-92; 18.1 µM (inactive) in the assay on OVCAR-8. In the assay with SK-MEL-28, the GI50 was 37.4 µM (inactive).
